Target: T1, gamma-secretase (Homo sapiens, UniProt P49768)
T1 construct: partially purified extract of IMR-32 cell membranes as the gamma-secretase enzyme preparation; endogenous in cells; host or cells: IMR-32 cell membranes (partially purified extract)
Assay: Gamma-secretase APP enzyme assay
Assay type: biochemical
Conditions: cleavage of MBP-C125 Swe substrate at the Aβ40 site; partially purified extract of IMR-32 cell membranes; ELISA
From the text: The gamma-secretase APP enzyme assay was designed to measure the specific proteolytic cleavage of an APP substrate (MBP-C125 Swe fusion protein) at the Aβ40 site. The assay used a partially purified extract of IMR-32 cell membranes as the gamma-secretase enzyme preparation and a recombinant fusion protein containing the C-terminal 125 amino acids of the Swedish variant of the APP (MBP-C125swe) as the substrate. This assay involved two steps beginning with the enzymatic reaction generating a cleavage product that was captured with an immobilized antibody specific for the neo-epitope Aβ40 site. The captured cleavage product was then detected in a sandwich ELISA assay with a biotinylated reporter antibody that is specific to Aβ (17-28). Streptavidin-linked alkaline phosphatase was then added that would generate a fluorescent signal proportional to the amount of cleavage product. This assay was used to discover small molecule inhibitors of gamma-secretase.
Briefly, a 149 mg/ml solution of BIGCHAP detergent was made with water at 42° C. and then rotated for 30 minutes at the same temperatures This warmed solution of BigCHAPS (N,N-Bis(3-D-gluconamidopropyl)cholamide) detergent was used to dissolve Brain Extract Type-V (lipid containing a minimum of 40% phosphatidylethanolamine) from Signa (St. Louis, Mo.) to a concentration of 8 mg/ml. This solution containing BigCHAPS and lipid at 8 mg/ml is then diluted to 0.53 mg/ml lipid with a pre-warmed solution of Hepes and sodium chloride. This final solution containing Hepes buffer, sodium chloride, BigCHAPS detergent and lipid is used to create working solutions of both gamma-secretase (25 Units) and the MBP-C125 substrate (0.05 mg/ml).
Gamma-secretase was then added to a 96-well micro-titre plate and then incubated with various concentrations of inhibitor for 30 minutes at 37° C. MBPC125 substrate was then added to initiate the reaction that would run for two hours at 37° C. The reaction was quenched with the addition of SDS to a final concentration of 0.1% and then 100 μl of the reaction mixture was transferred to a capture ELISA plate and incubated overnight at 4° C. Detection of the cleavage product was performed using a standard sandwich ELISA assay and quantified using a six point standard curve.

Row | SMILES | IC50 [nM]
1 | Cc1noc(C)c1S(=O)(=O)N1c2ccc(F)cc2-c2[nH]ncc2C1C (centres unmarked) [4-(8-fluoro-4-methyl-1H-pyrazolo[4,3-c]quinolin-5(4H)-ylsulfonyl)-3,5-dimethylisoxazole] | 501 to 1000
2 | CC1c2cn[nH]c2-c2cc(F)ccc2N1S(=O)(=O)c1ccc(F)cc1 (centres unmarked) [8-fluoro-5-(4-fluorophenylsulfonyl)-4-methyl-4,5-dihydro-1H-pyrazolo[4,3-c]quinoline] | 0.1 to 100
3 | O=S(=O)(c1ccc(C(F)(F)F)cc1)N1c2c[n+]([O-])ccc2-c2n[nH]cc2C1C1CC1 (centres unmarked) [4-cyclopropyl-5-(4-(trifluoromethylphenylsulfonyl)-4,5-dihydro-2H-pyrazolo[4,3-c][1,7]naphthyridine 7-oxide] | 0.1 to 100
4 | O=S(=O)(c1ccc(Cl)cc1)N1Cc2c[nH]nc2-c2c(F)cccc21 [5-[(4-chlorophenyl}sulfonyl]-9-fluoro-4,5-dihydro-2H-pyrazolo[4,3-c]quinoline] | 0.1 to 100
5 | COc1cccc2c1-c1[nH]ncc1C(C)N2S(=O)(=O)c1ccc(Cl)cc1 (centres unmarked) [5-[(4-chlorophenyl)sulfonyl]-9-methoxy-4-methyl-4,5-dihydro-1H-pyrazolo[4,3-c]quinoline] | 1000 to 10000
6 | O=S(=O)(c1ccc(Cl)s1)N1c2cc(F)c(F)cc2-c2n[nH]cc2C1C1CC1 (centres unmarked) [5-(5-chlorothiophen-2-ylsulfonyl)-4-cyclopropyl-7,8-difluoro-4,5-dihydro-2H-pyrazolo[4,3-c]quinoline] | 0.1 to 100
7 | O=S(=O)(c1ccc(Cl)cc1)N1c2ccccc2-c2n[nH]cc2C12CC2 [5′-(4-chlorophenylsulfonyl)-2′,5′-dihydrospiro[cyclopropane-1,4′-pyrazolo[4,3-c]quinoline]] | 0.1 to 100
8 | O=S(=O)(c1ccc(C(F)(F)F)nc1)N1c2cc(F)c(F)cc2-c2[nH]ncc2C1C1CC1 (centres unmarked) [4-cyclopropyl-7,8-difluoro-5-(6-(trifluoromethyl)pyridin-3-ylsulfonyl)-4,5-dihydro-1H-pyrazolo[4,3-c]quinoline] | 0.1 to 100
9 | CC1c2c[nH]nc2-c2cc(O)ccc2N1S(=O)(=O)c1ccc(Cl)cc1 (centres unmarked) [5-(4-chlorophenylsulfonyl)-4-methyl-4,5-dihydro-2H-pyrazolo[4,3-c]quinolin-8-ol] | 0.1 to 100
10 | O=S(=O)(c1ccc(C(F)(F)F)cc1)N1c2nccn2-c2[nH]ncc2C1C1CC1 (centres unmarked) [4-cyclopropyl-5-(4-(trifluoromethyl)phenylsulfonyl)-4,5-dihydro-1H-imidazo[1,2-a]pyrazolo[4,3-e]pyrimidine] | 501 to 1000
11 | O=S(=O)(c1ccc(C(F)(F)F)cc1)N1c2ccc(F)cc2-c2[nH]ncc2C1C1CC1 (racemic) [4-cyclopropyl-8-fluoro-5-(4-(trifluoromethyl)phenylsulfonyl)-4,5-dihydro-1H-pyrazolo[4,3-c]quinoline] | 0.1 to 100
12 | CC1c2cn[nH]c2-c2cc(F)c(F)cc2N1S(=O)(=O)c1ccc(Cl)s1 (centres unmarked) [5-(5-chlorothiophen-2-ylsulfonyl)-7,8-difluoro-4-methyl-4,5-dihydro-1H-pyrazolo[4,3-c]quinoline] | 0.1 to 100
13 | O=S(=O)(c1ccc(Cl)cc1)N1Cc2c(O)n[nH]c2-c2ccccc21 [5-[(4-chlorophenyl)sulfonyl]-4,5-dihydro-1H-pyrazolo{4,3-c]quinolin-3-ol] | 1000 to 10000
14 | CC1c2c[nH]nc2-c2ccc(OC(=O)N(C)C)cc2N1S(=O)(=O)c1ccc(Cl)cc1 (centres unmarked) [5-(4-chlorophenylsulfonyl)-4-methyl-4,5-dihydro-1H-pyrazolo[4,3-c]quinolin-7-yl dimethylcarbamate] | 0.1 to 100
15 | O=S(=O)(c1ccc(C(F)(F)F)cc1)N1Cc2c[nH]nc2-c2cc(F)c(F)cc21 [7,8-difluoro-5-(4-(trifluoromethyl)phenylsulfonyl)-4,5-dihydro-2H-pyrazolo[4,3-c]quinoline] | 0.1 to 100
16 | CC[C@@H]1c2cn[nH]c2-c2cc(F)c(F)cc2N1S(=O)(=O)c1ccc(C(F)(F)F)cc1 [(R)-4-ethyl-7,8-difluoro-5-(4-(trifluoromethyl)phenylsulfonyl)-4,5-dihydro-1H-pyrazolo[4,3-c]quinoline] | 0.1 to 100
17 | O=S(=O)(c1ccc(OC(F)(F)F)cc1)N1c2cc(F)c(F)cc2-c2[nH]ncc2C1C1CC1 (centres unmarked) [4-cyclopropyl-7,8-difluoro-5-(4-(trifluoromethoxy)phenylsulfonyl)-4,5-dihydro-1H-pyrazolo[4,3-c]quinoline] | 0.1 to 100
18 | CCC1N(S(=O)(=O)c2ccc(Cl)cc2)c2ccccc2-c2ccnn21 (centres unmarked) [6-(4-chlorophenylsulfonyl)-5-ethyl-5,6-dihydropyrazolo[1,5-c]quinazoline] | 101 to 500
19 | O=S(=O)(c1ccc(Cl)cc1)N1Cc2c[nH]nc2-c2cc(F)ccc21 [5-[(4-chlorophenyl)sulfonyl]-8-fluoro-4,5-dihydro-2H-pyrazolo[4,3-c]quinoline] | 0.1 to 100
20 | O=S(=O)(c1ccc(C(F)(F)F)cc1)N1c2ccccc2-c2[nH]ncc2C12CC2 [5′-(4-(trifluoromethyl)phenylsulfonyl)-1′,5′-dihydrospiro[cyclopropane-1,4′-pyrazolo[4,3-c]quinoline]] | 0.1 to 100
21 | O=S(=O)(c1ccc(Cl)cn1)N1c2ccc(F)cc2-c2n[nH]cc2C1C1CC1 (centres unmarked) [5-(5-chloropyridin-2-ylsulfonyl)-4-cyclopropyl-8-fluoro-4,5-dihydro-1H-pyrazolo[4,3-c]quinoline] | 0.1 to 100
22 | CC1c2cn[nH]c2-c2cc(O)c(O)cc2N1S(=O)(=O)c1ccc(Cl)cc1 (centres unmarked) [5-(4-chlorophenylsulfonyl)-4-methyl-4,5-dihydro-1H-pyrazolo[4,3-c]quinoline-7,8-diol] | 0.1 to 100
23 | O=S(=O)(c1ccc(OC(F)F)cc1)N1c2cc(F)c(F)cc2-c2[nH]ncc2[C@H]1C1CC1 [(R)-4-cyclopropyl-5-(4-(difluoromethoxy)phenylsulfonyl)-7,8-difluoro-4,5-dihydro-1H-pyrazolo[4,3-c]quinoline] | 0.1 to 100
24 | Cc1nc2c(s1)N(S(=O)(=O)c1ccc(C(F)(F)F)cc1)C(C1CC1)c1c[nH]nc1-2 (centres unmarked) [4-cyclopropyl-7-methyl-5-(4-(trifluoromethyl)phenylsulfonyl)-4,5-dihydro-1H-pyrazolo[3,4-d]thiazolo[5,4-b]pyridine] | 0.1 to 100
25 | O=S(=O)(c1cccs1)N1c2cc(F)c(F)cc2-c2n[nH]cc2C1C1CC1 (centres unmarked) [4-cyclopropyl-7,8-difluoro-5-(thiophen-2-ylsulfonyl)-4,5-dihydro-2H-pyrazolo[4,3-c]quinoline] | 0.1 to 100
26 | COc1ccc(S(=O)(=O)N2c3ccc(F)cc3-c3[nH]ncc3[C@H]2C2CC2)cc1 [(R)-4-cyclopropyl-8-fluoro-5-(4-methoxyphenylsulfonyl)-4,5-dihydro-1H-pyrazolo[4,3-c]quinoline] | 0.1 to 100
27 | O=S(=O)(c1ccc(Cl)cc1)N1c2ccccc2-c2n[nH]cc2C1C1CC1 (centres unmarked) [5-(4-chlorophenylsulfonyl)-4-cyclopropyl-4,5-dihydro-2H-pyrazolo[4,3-c]quinoline] | 0.1 to 100
28 | O=S(=O)(c1ccc(C(F)(F)F)cn1)N1c2cc(F)c(F)cc2-c2[nH]ncc2C1C1CC1 (centres unmarked) [4-cyclopropyl-7,8-difluoro-5-(5-(trifluoromethyl)pyridin-2-ylsulfonyl)-4,5-dihydro-1H-pyrazolo[4,3-c]quinoline] | 0.1 to 100

Same assay, conditions: cleavage of MBP-C125 Swe substrate at the Aβ40 site; partially purified extract of IMR-32 cell membranes; ELISA; enantiomer A

Row | SMILES | IC50 [nM]
29 | CC1c2c[nH]nc2-c2ccccc2N1S(=O)(=O)c1ccccn1 (single isomer, unassigned) [4-methyl-5-(pyridin-2-ylsulfonyl)-4,5-dihydro-1H-pyrazolo[4,3-c]quinoline] | 101 to 500
30 | O=S(=O)(c1ccc(Cl)s1)N1c2cc(F)c(F)cc2-c2n[nH]cc2C1C1CC1 (single isomer, unassigned) [5-(5-chlorothiophen-2-ylsulfonyl)-4-cyclopropyl-7,8-difluoro-4,5-dihydro-2H-pyrazolo[4,3-c]quinoline] | 0.1 to 100
31 | CC1c2c[nH]nc2-c2cc(F)c(F)cc2N1S(=O)(=O)c1ccc(Cl)cc1 (single isomer, unassigned) [5-(4-chlorophenylsulfonyl)-7,8-difluoro-4-methyl-4,5-dihydro-2H-pyrazolo[4,3-c]quinoline] | 0.1 to 100
32 | CC1c2cn[nH]c2-c2ccc(O)cc2N1S(=O)(=O)c1ccc(Cl)cc1 (single isomer, unassigned) [5-(4-chlorophenylsulfonyl)-4-methyl-4,5-dihydro-1H-pyrazolo[4,3-c]quinolin-7-ol] | 0.1 to 100
33 | CC1c2cnc(N)nc2-c2cc(F)ccc2N1S(=O)(=O)c1ccc(F)cc1 (single isomer, unassigned) [9-fluoro-6-(4-fluorophenylsulfonyl)-5-methyl-5,6-dihydropyrimido[5,4-c]quinolin-2-amine] | 1000 to 10000

Same assay, conditions: cleavage of MBP-C125 Swe substrate at the Aβ40 site; partially purified extract of IMR-32 cell membranes; ELISA; enantiomer B

Row | SMILES | IC50 [nM]
34 | CC1c2c[nH]nc2-c2ccccc2N1S(=O)(=O)c1ccccn1 (single isomer, unassigned) [4-methyl-5-(pyridin-2-ylsulfonyl)-4,5-dihydro-1H-pyrazolo[4,3-c]quinoline] | 1000 to 10000
35 | O=S(=O)(c1ccc(Cl)s1)N1c2cc(F)c(F)cc2-c2n[nH]cc2C1C1CC1 (single isomer, unassigned) [5-(5-chlorothiophen-2-ylsulfonyl)-4-cyclopropyl-7,8-difluoro-4,5-dihydro-2H-pyrazolo[4,3-c]quinoline] | 0.1 to 100
36 | CC1c2c[nH]nc2-c2cc(F)c(F)cc2N1S(=O)(=O)c1ccc(Cl)cc1 (single isomer, unassigned) [5-(4-chlorophenylsulfonyl)-7,8-difluoro-4-methyl-4,5-dihydro-2H-pyrazolo[4,3-c]quinoline] | 0.1 to 100
37 | CC1c2cn[nH]c2-c2ccc(O)cc2N1S(=O)(=O)c1ccc(Cl)cc1 (single isomer, unassigned) [5-(4-chlorophenylsulfonyl)-4-methyl-4,5-dihydro-1H-pyrazolo[4,3-c]quinolin-7-ol] | 0.1 to 100
38 | CC1c2cnc(N)nc2-c2cc(F)ccc2N1S(=O)(=O)c1ccc(F)cc1 (single isomer, unassigned) [9-fluoro-6-(4-fluorophenylsulfonyl)-5-methyl-5,6-dihydropyrimido[5,4-c]quinolin-2-amine] | 101 to 500
